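96-well plates; 48 h exposure; 5 concentrations. Endpoints by linear interpolation between flanking doses. Not reached: highest tested concentration assigned. TGI marks complete inhibition of growth.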
Legend:
Assay in all cases: growth of human tumour cells (NCI), 48 h
MDA-MB-435 = test system: MDA-MB-435
SF-539 CNS = test system: SF-539 CNS
DU-145 prostate = test system: DU-145 prostate
U251 CNS = test system: U251 CNS
MDA-MB-231 breast = test system: MDA-MB-231 breast
RXF 393 renal = test system: RXF 393 renal
MOLT-4 leukemia = test system: MOLT-4 leukemia
T-47D breast = test system: T-47D breast
UO-31 renal = test system: UO-31 renal
SR leukemia = test system: SR leukemia

Row | Structure (SMILES) | TGI (MDA-MB-435) [µM] | TGI (SF-539 CNS) [µM] | TGI (DU-145 prostate) [µM] | TGI (U251 CNS) [µM] | TGI (MDA-MB-231 breast) [µM] | TGI (RXF 393 renal) [µM] | TGI (MOLT-4 leukemia) [µM] | TGI (T-47D breast) [µM] | TGI (UO-31 renal) [µM] | TGI (SR leukemia) [µM]
1 | C/C=C1/CN2[C@@H](C3=C[C@@H]4[C@@H]5N(C3=O)c3ccccc3[C@@]53CCN5C/C(=C/C)[C@@H]4C[C@H]53)C[C@@]34c5ccccc5N5C(=O)CC=C([C@H]1C[C@H]23)[C@H]54 | 14.1 | 2.87 | 22.1 | 7.67 | 9.19 | 10.6 | 6.28 | 49.2 | 8.34 | –
2 | COC(=O)c1ccc(CCC2=CC(=O)C(Br)=CC2=O)cc1 | 31.2 | 31.8 | 32 | 32.5 | 38.7 | 32.3 | 7.32 | 70.9 | 29.2 | > 100
3 | CCCN=C1Nc2ccccc2[C@@H]2N(C)c3ccccc3C(C)C[C@]12C (stereo not given in full) | 34 | 30.5 | > 100 | – | 29.8 | 37.2 | 45.7 | 49.6 | 98.9 | –
4 | CC(C)=CCC/C(=C\CC/C(=C\CCc1ccoc1)C(=O)O)C(=O)O | > 100 | > 100 | > 100 | > 100 | > 100 | > 100 | > 100 | > 100 | > 100 | > 100
5 | C=C(C)[C@@H]1CC[C@]2(CO)CC[C@]3(C)[C@H](CC[C@@H]4[C@@]5(C)CC[C@H](O)C(C)(C)[C@@H]5CC[C@]43C)[C@@H]12 | 57.1 | 33.8 | > 100 | 24.1 | > 100 | 25.9 | > 100 | > 100 | 26 | > 100
6 | CC(C)(C)OC(=O)NC1CCCC1C(O)(C1=CCCC1)C1=CCCC1 (stereo not given) | > 100 | – | > 100 | > 100 | > 100 | > 100 | > 100 | > 100 | – | > 100
7 | Cc1ccc2ccc(=O)oc2c1 | > 100 | > 100 | > 100 | > 100 | > 100 | > 100 | > 100 | > 100 | > 100 | > 100
8 | Cc1ccc(S(=O)(=O)NC(=O)NC(Cc2ccccc2)C(=O)O)cc1 (stereo not given) | – | > 100 | > 100 | > 100 | > 100 | > 100 | > 100 | > 100 | > 100 | > 100
9 | Cc1c(C#N)c2nnn(-c3ccc([N+](=O)[O-])cc3)c(=O)n2c1-c1ccccc1 | 42.9 | 28.1 | 26.1 | 14.5 | 34.7 | 31.2 | – | 14.3 | 25.5 | 46.3
10 | Cc1ccc(S(=O)(=O)N(CC(O)c2ccccc2)c2ccccc2F)cc1 (stereo not given) | 32.9 | 30.7 | 32.2 | 36.7 | 36.6 | – | – | 40.7 | 29.8 | –
11 | CCOC(O)C(F)(F)F (stereo not given) | > 100 | – | > 100 | > 100 | > 100 | > 100 | > 100 | > 100 | > 100 | > 100
12 | [N-]=[N+]=C(C(=O)OCC#CCOC(=O)C(=[N+]=[N-])S(=O)(=O)c1ccccc1)S(=O)(=O)c1ccccc1 | > 10 | > 10 | > 10 | > 10 | > 10 | > 10 | > 10 | > 10 | 0.519 | –
13 | COc1ccc(OC)c(C(=O)/C=C/c2cc(O)c(O)cc2F)c1 | 0.99 | 0.626 | 15.1 | 12.3 | 11.4 | 23.5 | – | > 100 | 28.7 | 4.62
14 | NC(CCl)=NC1CN2CCC1CC2 (stereo not given) | > 100 | > 100 | > 100 | > 100 | > 100 | > 100 | > 100 | > 100 | – | > 100
15 | COc1ccc(C[C@H]2NC(=O)/C=C/C[C@@H]([C@H](C)[C@H]3O[C@@H]3c3ccccc3)OC(=O)[C@H](CC(C)C)OC(=O)[C@H](C)CNC2=O)cc1 | 1.45e-05 | 4.36e-05 | > 8.97e-05 | > 0.0001 | > 8.79e-05 | > 3.12e-05 | > 0.0001 | > 0.0001 | > 0.0001 | –
16 | O=C(Nc1ccc(Cl)cc1)c1cccc([N+](=O)[O-])c1O | – | > 74.1 | – | 48.5 | – | 6.67 | 10.1 | – | 6.56 | 31.5
17 | CC(=O)c1cc2c(s1)C(=O)c1scc(C(C)=O)c1C2=O | 0.496 | 2.44 | 2.86 | 0.628 | 0.809 | 1.54 | – | 0.838 | 1.31 | 0.335
18 | O=c1[nH]c2nccnc2c2c([N+](=O)[O-])cccc12 | > 100 | > 100 | > 100 | > 100 | – | > 100 | > 100 | 73.4 | > 100 | > 100
19 | c1ccc2c(c1)CCN(C1=NCCO1)C2 | > 10 | > 10 | > 10 | > 10 | > 10 | > 10 | > 10 | > 10 | > 10 | –
20 | COC(=O)C1=COC(C)C2C[n+]3ccc4c([nH]c5ccccc54)c3CC12 (stereo not given) | > 100 | > 100 | > 100 | > 100 | > 100 | – | > 100 | > 100 | > 100 | –
21 | Cc1cccc(/C=N/NC(=S)N2CCCCCC2)n1 | 38.9 | 0.549 | – | – | 15.2 | 38.9 | – | > 100 | 9.91 | –
22 | COC(=O)C1=C(O)C(C(=O)OC)[C@]2(O)[C@H](C(=O)OC)[C@H]1C[C@@H](c1cccc(OC)c1)[C@H]2C(=O)OC (stereo not given in full) | 55.2 | > 100 | – | 68.7 | 78.3 | 43.1 | > 100 | > 100 | 34.7 | > 100
23 | CC1(C)C2CCC1(C)C(N/C(=C(/C(Cl)=C(Cl)Cl)[N+](=O)[O-])n1nnc3ccccc31)C2 (stereo not given) | 46.2 | > 100 | – | 43.3 | 53.7 | 36.5 | – | > 100 | 51 | –

Row | Structure (SMILES) | TGI (MDA-MB-435) [µM] | TGI (SF-539 CNS) [µM] | TGI (DU-145 prostate) [µM] | TGI (U251 CNS) [µM] | TGI (MDA-MB-231 breast) [µM] | TGI (RXF 393 renal) [µM] | TGI (MOLT-4 leukemia) [µM] | TGI (T-47D breast) [µM] | TGI (UO-31 renal) [µM] | TGI (SR leukemia) [µM]
24 | CSc1nc2c(c(=O)n1C)N=C(c1ccc(Cl)cc1)CC(c1ccccc1)N2 (stereo not given) | > 100 | 31.7 | 73 | > 100 | 27.3 | 75.4 | 53.9 | – | > 100 | > 100
25 | COc1cc2c(cc1OC)C1=Cc3ccc(OC)c(OC)c3C(C#N)N1CC2 (stereo not given) | 82.3 | > 100 | > 100 | > 100 | 81.3 | – | > 100 | 40.4 | > 100 | –
26 | NNC(=O)Cc1cccnc1 | > 100 | > 100 | > 100 | > 100 | > 100 | > 100 | > 100 | > 100 | > 100 | –
27 | O=c1[nH]nc(Cc2ccccc2)n1/N=C/c1ccc([N+](=O)[O-])o1 | 3.8 | 8.94 | 42.3 | 16.3 | 18.4 | 7.94 | > 100 | 79.1 | > 100 | –
28 | OCc1c2c(cc3c1CC1(C3)Cc3cc4c(c(CO)c3C1)CCC4)CCC2 | 36.9 | 32.1 | – | 29.4 | 32.1 | 32.7 | 28.3 | 31 | 3.22 | –
29 | CN(C)c1ccc(/C=N/n2c(-c3ccccc3)nc3ccccc3c2=O)cc1 | > 100 | > 100 | > 100 | > 100 | > 100 | – | > 100 | > 100 | – | 83.6
30 | O=C(O)CS(=O)c1ccc2c3c(cccc13)C(=O)c1ccccc1-2 (stereo not given) | > 100 | > 100 | > 100 | > 100 | > 100 | > 100 | – | > 100 | > 100 | > 100
31 | O=c1c(/C=C/c2c(O)ccc3ccccc23)nnc2sc(-c3cccc([N+](=O)[O-])c3)nn12 | > 100 | – | > 100 | > 100 | 58 | > 100 | 28.4 | – | > 100 | > 100
32 | CC(=O)N1CC(C)(C)c2c1cc(C)c(O)c2C | > 100 | > 100 | > 100 | > 100 | > 100 | > 100 | > 100 | > 100 | > 100 | –
33 | COc1ccc(C2c3cc4c(cc3OC(NNC(N)=O)C2C)OCO4)cc1 (stereo not given) | 8.2 | 4.86 | > 100 | 35.2 | > 100 | 54.5 | 74.5 | > 100 | > 90.5 | –
34 | Cc1ccc(C2(N3CCCC3)OC(C)(C)c3cccc4cccc2c34)cc1 (stereo not given) | 28 | 32.1 | 32.8 | 29.4 | – | 27.1 | > 100 | 46.9 | 28.3 | 67.6
35 | O=C(O)C(F)(F)C(F)(F)C(F)(F)C(F)(F)C(=O)O | > 100 | – | > 100 | > 100 | > 100 | > 100 | – | > 100 | > 100 | > 100
36 | NNC(=Nc1ccccc1)SCc1ccccc1 | > 100 | > 100 | > 100 | > 100 | > 100 | > 100 | > 100 | – | > 100 | > 100
37 | CN1[C@@H]2CCCC[C@H]2N(C)P1(=O)C(O)/C=C/c1ccccc1 (stereo not given in full) | > 100 | – | > 100 | > 100 | > 100 | > 100 | > 100 | > 100 | > 100 | –
38 | O=c1[nH]c(=S)c2cc3c(=S)[nH]c(=O)n(CCC(c4ccccc4)(c4ccccc4)c4ccccc4)c3nc2n1CCC(c1ccccc1)(c1ccccc1)c1ccccc1 | > 100 | – | > 100 | > 100 | > 100 | – | 84.1 | > 100 | > 100 | –
39 | CCOC(=O)CN=C1Nc2ccccc2C(=O)N2CSCC12 (stereo not given) | > 100 | – | > 100 | > 100 | > 100 | > 100 | > 100 | > 100 | > 100 | > 100
40 | c1nncn1C12C3C4C5C3C1C5C42 (stereo not given) | > 100 | > 100 | > 100 | > 100 | > 100 | – | > 100 | > 100 | – | > 100
41 | CCn1nc(-c2ccccc2)c2c1N(C)c1ccccc1-n1c(-c3ccccc3)nnc1-2 | > 100 | 48 | 29.7 | 28.2 | 28.6 | – | – | 46.9 | 40.5 | > 100
42 | COc1ccc2c(c1)C1Oc3ccccc3CC1(O)CO2 (stereo not given) | > 100 | > 100 | > 100 | > 100 | > 100 | – | > 100 | > 100 | > 100 | > 100
43 | COC(=O)c1c(O)ccc2c1c1c(n2Cc2ccc(OC)cc2)C(=O)c2ccccc2C1=O | 22.3 | 29.1 | 52.5 | 23.4 | – | 34.3 | – | 46.1 | 29.2 | 2.92
44 | CCOC(=O)c1[nH]cnc1/N=N/N(C)N | > 100 | > 100 | > 100 | > 100 | > 100 | > 100 | > 100 | > 100 | > 100 | –
45 | O=C(O)CCC(C(=O)O)N1C(=O)c2ccccc2C1=O (stereo not given) | > 100 | – | > 100 | > 100 | > 100 | > 100 | – | > 100 | > 100 | > 100
46 | CC1(C)CC(=O)C2=C(C1)NC(SCC(=O)O)=C(C#N)C2c1ccc(Br)cc1 (stereo not given) | > 100 | – | > 100 | > 100 | > 100 | > 100 | – | – | 15.6 | –

Reference: PubChem BioAssay (NCI)
